Measured values as given in paper PMC2759517 (PLoS ONE, 2009).
Where no end group is shown, it is not given here.

Each molecule was assayed against T1, HA-tagged PA of FluB (Influenza B virus, UniProt Q9QLI9) (assay: biochemical).
T1 construct: upstream of the initiation codon and antisense primers with a deleted stop codon; made in house; host or cells: human 293T cells, transiently transfected; unpurified cell lysate
Type: binding

T1 sequence (Q9QLI9 whole entry): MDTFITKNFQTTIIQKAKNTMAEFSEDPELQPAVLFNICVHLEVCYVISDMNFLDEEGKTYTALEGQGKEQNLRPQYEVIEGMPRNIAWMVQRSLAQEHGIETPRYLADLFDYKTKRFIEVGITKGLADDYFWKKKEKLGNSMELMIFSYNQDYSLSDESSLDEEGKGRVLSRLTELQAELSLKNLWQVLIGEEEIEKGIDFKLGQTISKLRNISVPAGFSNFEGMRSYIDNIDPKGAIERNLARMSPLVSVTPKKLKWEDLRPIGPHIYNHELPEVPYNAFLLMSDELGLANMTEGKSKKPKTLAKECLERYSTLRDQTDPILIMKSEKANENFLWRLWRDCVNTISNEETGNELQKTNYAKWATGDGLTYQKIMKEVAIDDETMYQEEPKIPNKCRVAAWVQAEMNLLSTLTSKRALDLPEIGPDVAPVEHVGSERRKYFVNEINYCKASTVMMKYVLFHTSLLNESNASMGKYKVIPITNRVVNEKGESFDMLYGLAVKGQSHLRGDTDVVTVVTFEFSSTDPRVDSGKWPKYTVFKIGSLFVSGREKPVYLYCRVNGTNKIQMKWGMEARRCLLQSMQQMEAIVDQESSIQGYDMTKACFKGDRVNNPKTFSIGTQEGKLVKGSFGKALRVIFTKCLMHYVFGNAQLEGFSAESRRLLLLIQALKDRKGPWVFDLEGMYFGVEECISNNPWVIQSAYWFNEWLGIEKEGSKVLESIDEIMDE

| Molecule | IC50 [nM] |
| --- | --- |
| MDVNPCLLFLKVPAQ-NH2 [PB11-15 AT6C] | > 3000 |
| MDVNPYFLFLKVPAQ-NH2 [PB11-15 AT6Y,L7F] | 345 |
| CC[C@H](C)[C@H](NC(=O)[C@H](CC(N)=O)NC(=O)[C@@H](N)CCSC)C(=O)N[C@@H](CC(N)=O)C(=O)N1CCC[C@H]1C(=O)N[C@H](C(=O)N[C@@H](CC(C)C)C(=O)N[C@@H](CC(C)C)C(=O)N[C@@H](Cc1ccccc1)C(=O)N[C@@H](CC(C)C)C(=O)N[C@@H](CCCCN)C(=O)N[C@H](C(=O)N1CCC[C@H]1C(=O)N[C@@H](C)C(=O)N[C@@H](CCC(N)=O)C(N)=O)C(C)C)[C@@H](C)O [PB11-15 AD2N,V3I] | > 3000 |
| MDVNPTLLFIDVPAQ-NH2 [PB11-15 AL10I,K11D] | > 3000 |
| MDVNPWLLFLKVPAQ-NH2 [PB11-15 AT6W] | 628 |
| MDVNPFLLFLKVPAQ-NH2 [PB11-15 AT6F] | 750 |
| MDVNPHLLFLKVPAQ-NH2 [PB11-15 AT6H] | > 3000 |
| MDVNPYLLFLKVPAQ-NH2 [PB11-15 AT6Y] | 107 |
| MDVNPTFLFLKVPAQ-NH2 [PB11-15 AL7F] | > 3000 |
| MNINPTLLFLKVPIQ-NH2 [PB11-15 AD2N,V3I,L14I] | > 3000 |
